This note sets out measurements from US9475778B2, “Sulfate of 5-hydroxy-1H-imidazole-4-carboxamide” (FUJIFILM Corporation, priority 2013, dated 2016).

What all share (type): physicochemical
The nature of series [1]: Storage stability test (3) under conditions of 60° C. and relative humidity of 75% (mass change, color appearance). The settings on record: relative humidity 75%, 2 weeks; for Mass change ratio (%): glass bottle, {(A1−A0)/A0}×100. How it is done: Storage Stability Test (3) Under Conditions of 60° C. and Relative Humidity of 75%
As test substances, the crystals obtained in Example 2 and Comparative Example 2 were chosen.
Each test substance (about 0.3 g) was put into a glass bottle, and stored under the conditions of 60° C. and relative humidity of 75% for 2 weeks, and then mass was measured. Mass change ratio of each test substance was calculated according to the following equation. Mass change ratio(%)={(A1−A0)/A0}×100 A0: Mass (g) of test substance before test A1: Mass (g) of test substance after test
Change of color appearance of the test substances was also visually evaluated.

The nature of series [2]: Storage for 2 weeks under conditions of 25° C. and relative humidity of 97%. The settings on record: relative humidity 97%.
The nature of series [3]: Storage stability test (2) under conditions of 60° C. and relative humidity of 75% (purity by HPLC). The settings on record: relative humidity 75%, 2 weeks. How it is done:
The purities are represented in terms of HPLC area %. The HPLC measurement was performed by using Prominence (Shimadzu) under the following conditions.
Storage Stability Test (2) Under Conditions of 60° C. and Relative Humidity of 75%
As a test substance, the crystals obtained in Example 1 were chosen.
The test substance (about 0.3 g) was put into a glass bottle, and stored under the conditions of 60° C. and relative humidity of 75% for 2 weeks. After completion of the test, purity of the substance was measured by HPLC.

Series [4] can be described thus: Storage stability test (1) under conditions of 60° C. and relative humidity of 75% (coloring). The settings on record: glass bottle, relative humidity 75%, 2 weeks, compared with crystals of Comparative Example 1. How it is done: Storage Stability Test (1) Under Conditions of 60° C. and Relative Humidity of 75%
As test substances, the crystals obtained in Examples 1 and 2 and Comparative Example 1 were chosen.
Each test substance (about 0.3 g) was put into a glass bottle, and stored under the conditions of 60° C. and relative humidity of 75% for 2 weeks.

For `CS(=O)(=O)O.NC(=O)c1nc[nH]c1O` [Comparative Example 2, Methanesulfonate of 5-hydroxy-1H-imidazole-4-carboxamide, reference compound], the “Mass change ratio (%)” value in series [1] is “+16.2%”. For the same molecule, the “appearance change after storage” value in series [2] is “deliquesced”.
For the molecule `NC(=O)c1nc[nH]c1O.O=S(=O)(O)O` [Example 1, sulfate of 5-hydroxy-1H-imidazole-4-carboxamide], in series [3] (glass bottle, HPLC area %), the “purity of the test substance after storage (HPLC)” value is given as 99.97%.
In the case of `NC(=O)c1nc[nH]c1O.O=S(=O)(O)O` [Example 2, sulfate of 5-hydroxy-1H-imidazole-4-carboxamide], the “Mass change ratio (%)” value in series [1] is on record as −0.1%. Besides, in series [1] (visually evaluated), the “Change of color appearance” value is listed as “No change (white)”. For the same molecule, the coloring after storage result in series [4] was “coloring in an obviously lower degree”. Also, the “appearance change after storage” value in series [2] is “did not show appearance change”. In addition, in series [3] (evaluated in the same manner as Test Example 2), the “purity after storage (in words)” value is “high purity even after the storage for 2 weeks”.
